The test system of data set [1] is hair. Nature of the data set: Measurement of swelling degree of hair. To be noted: 100×(D1−D0)/D0 of hair diameter. The protocol:
Hair was immobilized in a concave part of a glass slide for biochemical count having a depth of the concave part of 200 μm (manufactured by NIPPON Genetics Co, Ltd.), a cover glass was placed on the glass slide to cover the concave part, the diameter of the hair was measured 10-14 times, and the mean thereof was calculated (D0). Thereafter, a sample was injected from the clearance between the cover glass and the glass slide, and left standing for 3 min or 5 min. The diameter of the hair was measured 10-14 times, and the mean was calculated (D1).
As the sample, ion exchange water, phosphate buffer (pH 6.2), protein-glutaminase solution (6.2 mg/mL, pH 6.2) and 1% aqueous ammonia (pH 11.8) were used. The swelling degree was calculated from the measured diameters of the hair (D0 and D1) according to the following formula. swelling degree (%)=100×(D1−D0)/D0

In data set [2] the test system is hair. As to the kind of experiment: Observation of hair damage (microscopic images ×400). The settings on record: 3 min after injection of sample. The protocol:
In the test of the above-mentioned 1, the condition of the hair 3 min after injection of ion exchange water, protein-glutaminase solution, or 1% aqueous ammonia was observed.

A further data set deals with perm-treated hair. As to the kind of experiment: Quantification of free ammonia produced by reaction of protein-glutaminase with perm-treated hair. The class given is biochemical, human. To be noted: 37° C., 1 hr. The protocol: Hair of Japanese women in their 20's was perm-treated and used as an experiment sample. The perm treatment included 1) immersing the hair in first perm liquid at 33° C. for 15 min and rinsing the first liquid with tap water at 35-40° C., and 2) immersing the hair in second perm liquid at 33° C. for 15 min and sufficiently rinsing same with tap water at 35-40° C. The continuous operation of 1) and 2) was repeated 4 times, and the hair was washed with 15% sodium laureth sulfate (EMAL E27C; Kao Corporation) and sufficiently rinsed with tap water at 35-40° C. The hair was immersed in a buffer, and treated with occasional stirring at room temperature for 10 min. The hair was combed out, hung while avoiding overlapped hair, and dried in a thermo-hygrostat room (23° C., 40% R.H.).
Using an Ammonia test kit (manufactured by Wako Pure Chemical Industries, Ltd.), the amount of free ammonia produced by reaction of protein-glutaminase with the above-mentioned perm-treated hair was quantified.
The protein-glutaminase solution (2 ml) at a concentration shown in Table 4 was added to a bundle of the above-mentioned perm-treated hair (0.25 g), and the amount of ammonia in a sample after reaction at 37° C. for 1 hr was measured. The amount of ammonia produced was shown as a value after subtraction of the amount of ammonia produced without addition of protein-glutaminase (Comparative Example 4).

The test system of data set [3] is 3D cultured human skin model: TESTSKIN LSE-high. Nature of the data set: Permeability of FITC-labeled Gly-Gly-Gly to artificial cultured skin. The settings on record: protein-glutaminase solution 4 mg/ml, 100 μl, 37° C. 30 min before peptide; measured after 2, 5, 20 hr; versus phosphate buffer (−). The format is cell-based. The protocol:
Using glycylglycylglycine (hereinafter indicated as “Gly-Gly-Gly”) (manufactured by PEPTIDE INSTITUTE, INC.) as a peptide to be evaluated for skin permeability, the permeability of Gly-Gly-Gly to commercially available artificial cultured skin (3D cultured human skin model: TESTSKIN LSE-high, manufactured by Toyobo Co., Ltd.) was evaluated. Gly-Gly-Gly was labeled with fluorescein by using fluorescein isothiocyanate (FITC-I, manufactured by Chemical-Dojin Co., Ltd.) to enable highly sensitive detection.
The cultured skin is cultured on a polycarbonate membrane on the bottom of a transwell, and set on a 6-well assay plate. […] The permeability was evaluated by measuring the amount of FITC-labeled Gly-Gly-Gly that permeated the cultured skin to move into phosphate buffer (−).
First, a protein-glutaminase solution (4 mg/ml, 100 μl) was added to the top of the cultured skin and incubated at 37° C. for 30 min, after which a FITC-labeled Gly-Gly-Gly sample (100 μl) was added to the top of the cultured skin. After 2, 5, and 20 hr, the amount of FITC-labeled Gly-Gly-Gly that permeated the cultured skin and moved into phosphate buffer (−) was measured. […] The fluorescence intensity was measured under the conditions of exciting wavelength 492 nm and fluorescence wavelength 520 nm. The fluorescence intensity was measured using platereader SpectraMaxM2 (manufactured by Molecular Devices, LLC.).

The values that follow come from patent US10463594B2, “Cosmetic composition” (AJINOMOTO CO., INC., priority 2012, dated 2019).

As for `N` [Comparative Example 3, 1% aqueous ammonia], the “swelling degree (%) after 3 min” value in the data set on hair [1] (hair left standing in sample for 3 min) turned out to be 11.1%. Besides, in the data set with hair [1] (hair left standing in sample for 5 min), the “swelling degree (%) after 5 min” value was 11.3%. Further, the “condition of the hair (hair damage)” value in the data set with hair [2] was “cuticles on the hair surface were lifted”.

B1: protein-glutaminase: protein-glutaminase of Chryseobacterium proteolyticum, secretory-expressed in Corynebacterium glutamicum, activated by protease, purified, dissolved in phosphate buffer (protein, listed as Chryseobacterium proteolyticum)
chain: LASVIPDVATLNSLFNQIKNQSCGTSTASSPCITFRYPVDGCYARAHKMRQILMNNGYDCEKQFVYGNLKASTGTCCVAWSYHVAILVSYKNASGVTEKRIIDPSLFSSGPVTDTAWRNACVNTSCGSASVSSYANTAGNVYYRSPSNSYLYDNNLINTNCVLTKFSLLSGCSPSPAPDVSSCGF
For B1, the “concentration of protein-glutaminase solution at which it reacted with perm-treated hair” value in the data set on perm-treated hair is “not less than 0.01 mg/ml”. For the same molecule, the “permeability of FITC-labeled Gly-Gly-Gly through cultured skin (fluorescence intensity)” value in data set [3] was “improved permeability of peptide”.
